Columns and labels:
PRSS1R122H mice [1] = test: Prevention of caerulein-induced pancreatitis in mouse model of human hereditary pancreatitis (PRSS1R122H); type: in vivo; details: Dabigatran 200 mg/kg×2, Camostat 300 mg/kg×2
Method: (§1) The secretagogue overstimulation model of experimental pancreatitis with caerulein, is a commonly used AP model (Zhan et al., Gastrointestinal Liver Physiology, 311:G343-55 (2016)). This model was accomplished by repeated intraperitoneal (ip) injections of caerulein (100 μg/kg/hour) once per hour (Huang et al., Gastroenterology, 144:202-10 (2013)).
A model of human hereditary pancreatitis (HP) was developed by using a bacterial artificial chromosome (BAC, clone RP11-701D14) harboring the full-length human PRSS1 gene containing an intact PRSS1 promoter, all exons and introns, and the 3′ untranslated region for faithful recapitulation of the gene's expression. An R122H point mutation was introduced by two rounds of genetic targeting using Galk-mediated recombineering (PRSS1^R122H) (Warming et al., Nucleic Acids Research, 33:e36 (2005)). This transgene expressed PRSS1^R122H at ˜50% of the endogenous human PRSS1 protein level as detected by Western blot (WB) and real-time RT-PCR. Taking into account that the PRSS1^R122H mutation was heterozygous, and that mutated PRSS1 constituted 50% of the total PRSS1 in human HP, this model does expressPRSS1^R122H at a physiologically relevant level. In this mouse model, spontaneous AP and CP were not observed. However, these mice developed more severe AP following the induction of AP with caerulein injection. More importantly, all of the PRSS1^R122H mice, but none of the WT mice, developed CP with an observed histopathology similar to that seen in human HP (Singhi et al., Am. J. Surg. Path., 38:346-53 (2014)). Therefore, this model faithfully recapitulates the histological changes observed during human HP (Singhi et al., Am. J. Surg. Path., 38:346-53 (2014)). […]
(§2) Pancreas edema, serum amylase, and histology were evaluated as described elsewhere (Gaiser et al., Gut, 60:1379-88 (2011); Huang et al., Gastroenterology, 144:202-10 (2013); and Daniluk et al., J. Clin. Invest., 122:1519-28 (2012)). […]

WT mice = test: Prevention of caerulein-induced acute pancreatitis in WT mice; type: in vivo, mouse; details: evaluated 24 h after first caerulein dose, Dabigatran 200 mg/kg×2, Camostat 300 mg/kg×2
Method: as §1
Camostat mesilate (Santa Cruz), Dabigatran etexilate mesylate (a prodrug for Dabigatran, TRC Canada), and Ximelagatran (a prodrug for Melagatran, Sigma-Aldrich) were dissolved in 10% β-Cyclodextrin (Sigma-Aldrich). […]
Pancreas edema, serum amylase, and histology were evaluated as described elsewhere (Gaiser et al., Gut, 60:1379-88 (2011); Huang et al., Gastroenterology, 144:202-10 (2013); and Daniluk et al., J. Clin. Invest., 122:1519-28 (2012)).
The effect of Dabigatran on experimental pancreatitis in WT mice was evaluated. Dabigatran and Camostat were administrated by oral gavage two hours before the initiation of AP by six hourly injections of caerulein (FIG. 1A). Twenty-four hours after the first dose of caerulein, the severity of pancreatitis was evaluated.

mutant trypsinogen mice = test: Prevention of pancreatitis in mouse model expressing active trypsin (PACE-trypsinogen); type: in vivo; details: pretreated two hours prior to caerulein and seven hours after final caerulein injection, Dabigatran 200 mg/kg×2, Camostat 300 mg/kg×2, Ximelagatran 40 mg/kg×2
Method: as §1
A PACE-activated trypsinogen model in which the original enteropeptidase cleavage site (DDDDK) was replaced by a PACE cleavage site (RTKR), using site-specific mutagenesis of the wild type rat trypsinogen cDNA, was produced (Ji et al., J. Biol. Chem., 284:17488-98 (2009)). PACE, paired basic amino acid cleaving enzyme (also called furin), is a mammalian propeptide-processing endoprotease that is present in the trans-Golgi network of virtually all cells. To target expression of PACE-trypsinogen specifically to pancreatic acinar cells, conditional LGL (loxP-GFP-stop-loxP)-PACE-trypsinogen transgenic mice were bred with full-length, acinar specific, elastase promoter-regulated Cre transgenic mice. […]
as §2

PRSS1R122H mice [2] = test: Therapeutic administration after AP induction in PRSS1R122H mice, progression to chronic pancreatitis; type: in vivo, mouse; details: administered four hours after AP induction by caerulein, treated for additional five days, Dabigatran 200 mg/kg Bid, Camostat 300 mg/kg Bid
Method: as §1
A model of human hereditary pancreatitis (HP) was developed by using a bacterial artificial chromosome (BAC, clone RP11-701D14) harboring the full-length human PRSS1 gene containing an intact PRSS1 promoter, all exons and introns, and the 3′ untranslated region for faithful recapitulation of the gene's expression. An R122H point mutation was introduced by two rounds of genetic targeting using Galk-mediated recombineering (PRSS1^R122H) (Warming et al., Nucleic Acids Research, 33:e36 (2005)). This transgene expressed PRSS1^R122H at ˜50% of the endogenous human PRSS1 protein level as detected by Western blot (WB) and real-time RT-PCR. […]
as §2

[3] = tested on: human having pancreatitis; test: Treating a human identified as having pancreatitis (Example 2); type: in vivo; details: 112 mg dabigatran or 150 mg dabigatran etexilate at least twice a day for one to three weeks
Method: A human identified as having pancreatitis is administered 112 mg of dabigatran or 150 mg of dabigatran etexilate at least twice a day for one to three weeks.

SMILES | pancreatic edema (pancreas/body weight ratio) (PRSS1R122H mice [1]; pretreatment before caerulein (100 μg/kg×6)) | pancreatic histology (PRSS1R122H mice [1]; pretreatment before caerulein) | serum amylase levels (PRSS1R122H mice [1]; pretreatment before caerulein) | pancreatic edema (pancreas/body weight ratio) (WT mice; oral gavage two hours before six hourly caerulein injections (100 μg/kg×6)) | serum amylase levels (WT mice; oral gavage two hours before six hourly caerulein injections) | development of severe AP (pancreas edema, serum amylase) (mutant trypsinogen mice) | progression of AP to CP (pancreas/body weight ratio, histology) (PRSS1R122H mice [2]) | severity of the pancreatitis [3]
CN(C)C(=O)COC(=O)Cc1ccc(OC(=O)c2ccc(NC(=N)N)cc2)cc1 [Camostat, Camostat mesilate] | only slightly improved | only slightly improved | only slightly improved | moderately reduce | no significant effect | no ability to prevent the development of severe AP | no positive effects on preventing the development of CP | 
CCCCCCOC(=O)N=C(N)c1ccc(NCc2nc3cc(C(=O)N(CCC(=O)OCC)c4ccccn4)ccc3n2C)cc1 [dabigatran etexilate] |  |  |  |  |  |  |  | reduction in the severity of the pancreatitis

From patent publication US20180369219A1, “USING DABIGATRAN TO TREAT PANCREATITIS” (Mayo Foundation for Medical Education and Research, priority 2017, published 2018)
